These results are taken from PMC10652874, “Investigation into the mechanism of action of the antimicrobial peptide epilancin 15X” (Frontiers in Microbiology, 2023).

One experiment has as its system Staphylococcus simulans. The note with it: ref Wang et al., 2023; cited from earlier work. An excerpt: (§1) Recent studies have shown that epilancin 15X activity varies depending on the indicator strain, with bacteriostatic activity against Staphylococcus simulans and Micrococcus flavus but bactericidal activity against Bacillus megaterium ([Wang et al., 2023]).
The test system of the next experiment is Micrococcus flavus. The conditions noted are these: ref Wang et al., 2023; cited from earlier work.
Text: as §1

For the next experiment, the system named is Bacillus megaterium. The conditions noted are these: ref Wang et al., 2023; cited from earlier work.
Text: as §1

Experiment [1] relates to cell wall biosynthesis in S. carnosus TM300. The experiment is described as follows: Macromolecular synthesis assay: 14C-N-acetyl-D-glucosamine incorporation into cell wall. The conditions noted are these: S. carnosus TM300, three independent experiments. Format: cell-based, Staphylococcus carnosus. The protocol:
(§2) Radiolabel incorporation experiments were carried out similarly as previously described but using S. carnosus ([Wu et al., 2019]). The OD600 of parallel nonradioactive cultures was measured at each time point to normalize the measured radioactivity and minimize effects due to cell death and growth inhibition. The radiolabeled reagents and their corresponding positive and negative antibiotic controls were as follows. […] All experiments were conducted independently three times.
(§3) Figure S3. Thre e in de pen den t ex perime nts of incorporation of (A) 14C- acetic acid into fatty acids, (B) 14C- thymi din e into D NA, (C) 3H-uridi ne into RNA, (D) 14C- lab el ed ami no acids into protei n, and (E) 14C- label ed GlcNAc into cell w all in S. carnosus TM300 cells treated with vario u s antimicro bia l agents. T he p ercent i nco rpo ratio n at 0 min was measured after incubati ng the cel l cultur e with 0.8 μCi/mL radioactive precursors for 15 min. Then 0.5x, 1x, 2x, or 4x MIC epilanci n 15X and 2x MIC controls were added to the cell cultur e (t=0), and t he percent incorporation was measur ed ov er time. Positive controls a re gr een and negative controls are black (cells o nly) an d blu e (co mpo und w ith mo d e o f actio n unr elate d to th e a ssay i n que stio n). […]

Experiment [2] has as its system S. epidermidis ATCC 12228. The experiment is described as follows: MIC determination in 96-well microtiter plate. In kind it is cell-based, Staphylococcus epidermidis. The note with it: 37°C, 10^5 CFU/mL, OD600 after 18 h.
The subject of experiment [3] is RNA biosynthesis in S. carnosus TM300. The experiment in a line: Macromolecular synthesis assay: 3H-uridine incorporation into RNA. Format: cell-based, Staphylococcus carnosus. The note with it: S. carnosus TM300, 2× MIC, three independent experiments. The protocol: as §2, §3
The test system of a further experiment is S. carnosus TM300. The experiment in a line: MIC determination in 96-well microtiter plate. The conditions noted are these: BHI, 37°C, 10^5 CFU/mL, OD600 after 18 h. Format: cell-based, Staphylococcus carnosus. The protocol: MIC determination was performed in a 96-well microtiter plate as described previously ([Wu et al., 2019]). Sensitive bacterial culture was grown in the appropriate medium (BHI for S. carnosus; LB for B. subtilis) at 37°C overnight. The culture was diluted to 10^5 CFU/mL in medium in each well. Epilancin 15X or its analog was dissolved in water and serially diluted to obtain final concentrations of 20, 10, 5, 2.5, 1.25, 0.625, 0.3125, 0.156, 0.078, 0.039, 0.019, and 0.009 μM. OD600 readings were obtained after 18 h using a Synergy H4 Hybrid Multi-Mode Microplate Reader (BioTeK). Cell-free untreated medium, and untreated cell culture were used as negative controls. The MIC of nisin against B. subtilis BSF2470 was determined following the same methods.

Experiment [4] concerns DNA biosynthesis in S. carnosus TM300. The experiment is described as follows: Macromolecular synthesis assay: 14C-thymidine incorporation into DNA. Format: cell-based, Staphylococcus carnosus. The note with it: S. carnosus TM300, 2× MIC, three independent experiments. The protocol:
as §2, §3

For experiment [5], the system named is B. subtilis BSF2470 (1A980). The experiment in a line: Killing kinetics (CFU counting). In kind it is cell-based, Bacillus subtilis. The protocol: S. carnosus TM300 and B. subtilis BSF2470 (1A980) cell cultures were grown to mid-log phase in BHI and LB broth, respectively. […] At each time point, an aliquot of […] treated-culture was serial-diluted and placed on BHI agar plates for S. carnosus and LB agar plates for B. subtilis. The plates were grown for 1 day at 37°C and the colonies were counted. Each experiment was performed in triplicate and untreated cell culture was used as the negative control.

For the substance Epilancin 15X, the “type of antimicrobial activity” value with Staphylococcus simulans is on record as “bacteriostatic”; in the experiment with Micrococcus flavus, “bacteriostatic”; in the experiment on Bacillus megaterium, “bactericidal”. Besides, in experiment [1], the “cell wall biosynthesis (14C-N-acetyl-D-glucosamine incorporation)” value is recorded as “no clear change”. For the same substance, the MIC in experiment [2] was found to be 0.62 µM; with S. carnosus TM300, 0.16 µM. In addition, the “RNA biosynthesis (3H-uridine incorporation)” value in experiment [3] is reported as “considerably stronger effect than that observed with the respective negative controls”. The “DNA biosynthesis (14C-thymidine incorporation)” value in experiment [4] is “considerably stronger effect than that observed with the respective negative controls”. Besides, in [5] (B. subtilis BSF2470, 4x MIC, 90 and 120 minutes, at the dilution factor plated), the “growth (colonies) after treatment” value is given as “no growth was observed”. The “number of colony forming units (CFU)” value in [5] (B. subtilis BSF2470, mid-log, 1x and 4x MIC, 30-180 min, triplicate) was “significant decrease”.

Broadly, the MIC is the lowest concentration found to suppress growth.
